According to patent US12497405B2, “Bicyclic heterocycle compounds methods of use thereof for the treatment of herpes viruses” (Merck Sharp & Dohme LLC, priority 2019, dated 2025):

Key:
[1] = molecular target: varicella zoster virus DNA polymerase (Varicella-zoster virus (strain Dumas) (HHV-3) (Human herpesvirus 3), UniProt P09252); assay: VZV polymerase assay (AlphaLISA); type: biochemical; details: VZV polymerase 0.4 nM, 30 min pre-incubation, 60 minute at 37° C.
Protocol: (§1) Human cytomegalovirus and varicella zoster virus DNA polymerases were expressed via baculovirus vector in SF21 cells and purified. Heterodimeric nucleic acid substrate used in the herpesvirus polymerase reactions were generated by annealing a 59-mer template to a 17-mer digoxigenin-labeled primer. Polymerase (HCMV final concentration of 0.2 nM; VZV final concentration of 0.4 nM) was combined with an inhibitor compound or DMSO in assay buffer (10 mM HEPES, pH 7.5, 25 mM KCl, 25 mM NaCl, 5 mM MgCl2, 5% glycerol, 0.67 mg/ml bovine serum albumin, and 1 mM tris(2-carboxyethyl)phosphine)), and this mixture was pre-incubated for 30 minutes at room temperature in 384-well microtiter plates. The polymerization reaction was initiated by the addition of template/primer substrate (final concentration: 1.6 nM), and dNTPs (final concentration: 24 nM dCTP, 24 nMdGTP, 16 nM dATP, 16 nM dTTP, and 0.8 nM biotin-dUTP). After a 60 minute incubation period at 37° C., the reactions were terminated using quench buffer (25 mM HEPES pH 7.5, 100 mM NaCl, 0.25% Tween-20, 12 mM EDTA, and 1 mg/ml bovine serum albumin). Incorporation of biotinylated UTP was detected with 2.5-5 μg/mL anti-DIG AlphaLISA acceptor beads and 5-10 μg/mL streptavidin AlphaLISA donor beads (PerkinElmer). Compound effects were normalized to the window defined by the controls (DMSO only and pre-quenched wells), and were fit using a 4-parameter algorithm to report an IC50.

[2] = molecular target: Human cytomegalovirus DNA polymerase (Human cytomegalovirus (strain AD169) (HHV-5) (Human herpesvirus 5), UniProt P08546); assay: CMV polymerase assay (AlphaLISA); type: biochemical; details: HCMV polymerase 0.2 nM, 30 min pre-incubation, 60 minute at 37° C.
Protocol: as §1

HSV1 = assay: Viral qPCR assay, HSV1; type: cell-based; details: Human alphaherpesvirus 1, 72 h, infected cells, viral genome copies by qPCR normalized to PPIA, read-out: HSV1 Cell EC50
Procedure, shortened: (§2)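 Cells (MRC5/Vero/MeWo) + virus → onto compound plates, 10-pt 3-fold dilutions; ~72 hrs, 37° C, 5% CO2. Lysis with NP-40/Tween-20/proteinase K, 56° C 1 h, then 95° C 10 min. qPCR of viral gene vs PPIA, copies from plasmid standards. 4-parameter EC50.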

CMV = assay: Viral qPCR assay, CMV; type: cell-based; details: Human betaherpesvirus 5, 72 h, infected cells, viral genome copies by qPCR normalized to PPIA, read-out: CMV Cell EC50
Procedure, shortened: as §2

HSV2 = assay: Viral qPCR assay, HSV2; type: cell-based; details: Human alphaherpesvirus 2, 72 h, infected cells, viral genome copies by qPCR normalized to PPIA, read-out: HSV2 Cell EC50
Procedure, shortened: as §2

| Structure (SMILES) | IC50 [1] | IC50 [2] | EC50 (HSV1) | EC50 (CMV) | EC50 (HSV2) |
| --- | --- | --- | --- | --- | --- |
| O=C1OC[C@@H]2C[C@@H](Oc3cc4c(=O)n(Cc5ccc(Cl)cc5)ccc4nc3-c3cnn(C(F)F)c3)CCN12 [Example 31] | 2.1 nM | 3 nM | 139 nM | 101 nM | 46 nM |
| CC(C)(N)Cc1cc2ccn(Cc3ccc(Cl)cc3)c(=O)c2cc1O[C@H]1CCN2C(=O)OC[C@@H]2C1 [Example 32] | 33 nM | 15 nM | 772 nM | 392 nM | 402 nM |
| CC(C)(O)Cc1cc2ccn(Cc3ccc(Cl)cc3)c(=O)c2cc1O[C@H]1CCN2C(=O)OC[C@@H]2C1 [Example 34] | 1.4 nM | 2.1 nM | 110 nM | 74 nM | 81 nM |
| O=C1OC[C@@H]2C[C@@H](Oc3cc4c(=O)n(Cc5ccc(Cl)cc5)cnc4nc3-c3cnn(C(F)F)c3)CCN12 [Example 36] | 1.5 nM | 1.9 nM | 49 nM | 37 nM | 28 nM |
| O=C1OC[C@@H]2C[C@@H](Oc3cc4c(=O)n(Cc5ccc(Cl)cc5)ccc4nc3-c3cnco3)CCN12 [Example 38] | 0.33 nM | 1.1 nM | 48 nM | 24 nM | 28 nM |
| COc1nc2ccn(Cc3ccc(Cl)cc3)c(=O)c2cc1O[C@H]1CCN2C(=O)OC[C@@H]2C1 [Example 39] | 41 nM | 28 nM | 1340 nM | 520 nM | 952 nM |
| Cc1nc2ccc(O[C@H]3CCN4C(=O)OC[C@@H]4C3)cc2c(=O)n1Cc1ccc(Cl)cc1 [Example 40] | 17 nM | 11 nM | 386 nM | 157 nM | 304 nM |
| N#Cc1cc2ncn(Cc3ccc(Cl)cc3)c(=O)c2cc1O[C@H]1CCN2C(=O)OC[C@@H]2C1 [Example 41] | 1.1 nM | 2.7 nM | 131 nM | 77 nM | 75 nM |
| O=C1OC[C@@H]2C[C@@H](Oc3cc(-c4cnco4)c4ncn(Cc5ccc(Cl)cc5)c(=O)c4c3)CCN12 [Example 42] | 13 nM | 21 nM | 233 nM | 181 nM | 92 nM |
| CC(C)(O)Cc1nc2ncn(Cc3ccc(Cl)cc3)c(=O)c2cc1O[C@H]1CCN2C(=O)OC[C@@H]2C1 [Example 45] | 25 nM | 11 nM | 268 nM | 269 nM | 309 nM |
| O=C1OC[C@@H]2C[C@@H](Oc3cc(CO)c4ncn(Cc5ccc(Cl)cc5)c(=O)c4c3)CCN12 [Example 46] | 20 nM | 24 nM | 423 nM | 174 nM | 334 nM |
| CC(C)(O)Cc1cc(O[C@H]2CCN3C(=O)OC[C@@H]3C2)cc2c(=O)n(Cc3ccc(Cl)cc3)cnc12 [Example 48] | 37 nM | 42 nM | 701 nM | 273 nM | 645 nM |
| O=C1OC[C@@H]2C[C@@H](Oc3ccc4nc(C5CC5)n(Cc5ccc(Cl)cc5)c(=O)c4c3)CCN12 [Example 49] | 43 nM | 29 nM | 1130 nM | 369 nM | 1080 nM |
| Cc1nc2cc(-c3cnco3)c(O[C@H]3CCN4C(=O)OC[C@@H]4C3)cc2c(=O)n1Cc1ccc(Cl)cc1 [Example 51] | 0.44 nM | 0.22 nM | 26 nM | 21 nM | 16 nM |
| Cc1nc2cc(-c3cnn(C)c3)c(O[C@H]3CCN4C(=O)OC[C@@H]4C3)cc2c(=O)n1Cc1ccc(Cl)cc1 [Example 52] | 0.44 nM | 0.3 nM | 39 nM | 22 nM | 19 nM |
| Cc1nc2cc(-c3cn[nH]c3)c(O[C@H]3CCN4C(=O)OC[C@@H]4C3)cc2c(=O)n1Cc1ccc(Cl)cc1 [Example 53] | 0.56 nM | 0.76 nM | 89 nM | 86 nM | 35 nM |
| Cc1nc2cc(-c3cccnc3)c(O[C@H]3CCN4C(=O)OC[C@@H]4C3)cc2c(=O)n1Cc1ccc(Cl)cc1 [Example 54] | 28 nM | 23 nM | 238 nM | 82 nM | 173 nM |

| Structure (SMILES) | IC50 [1] | IC50 [2] | EC50 (HSV1) | EC50 (CMV) | EC50 (HSV2) |
| --- | --- | --- | --- | --- | --- |
| Cc1nc2cc(C#N)c(O[C@H]3CCN4C(=O)OC[C@@H]4C3)cc2c(=O)n1Cc1ccc(Cl)cc1 [Example 56] | 6.5 nM | 2.8 nM | 124 nM | 64 nM | 109 nM |
| COc1nc2ccc(O[C@H]3CCN4C(=O)OC[C@@H]4C3)cc2c(=O)n1Cc1ccc(Cl)cc1 [Example 58] | 47 nM | 23 nM | 996 nM | 173 nM | 1140 nM |
| Cc1nc2ccc(O[C@H]3CCN4C(=O)OC[C@@H]4C3)cc2c(=O)n1Cc1ccc(C#N)cc1 [Example 59] | 29 nM | 31 nM | 746 nM | 347 nM | 561 nM |
| Cc1nc2cc(-c3cnco3)c(O[C@H]3CCN4C(=O)OC[C@@H]4C3)cc2c(=O)n1Cc1ccc(C#N)cc1 [Example 60] | 0.44 nM | 0.82 nM | 84 nM | 53 nM | 40 nM |
| Cc1nc2cc(-c3cnn(C(F)F)c3)c(O[C@H]3CCN4C(=O)OC[C@@H]4C3)cc2c(=O)n1Cc1ccc(C#N)cc1F [Example 64] | 8.9 nM | 2.5 nM | 71 nM | 64 nM | 51 nM |
| CCc1nc2cc(-c3cnco3)c(O[C@H]3CCN4C(=O)OC[C@@H]4C3)cc2c(=O)n1Cc1ccc(C#N)cc1 [Example 65] | 0.68 nM | 1.2 nM | 46 nM | 28 nM | 18 nM |
| Cc1nc2cc(-c3cnn(C(F)F)c3)c(O[C@H]3CCN4C(=O)OC[C@@H]4C3)cc2c(=O)n1Cc1ccc(C#N)c(F)c1 [Example 66] | 4.8 nM | 2.2 nM | 43 nM | 50 nM | 34 nM |
| Cc1nc2ncc(O[C@H]3CCN4C(=O)OC[C@@H]4C3)cc2c(=O)n1Cc1ccc(Cl)cc1 [Example 69] | 29 nM | 35 nM | 870 nM | 307 nM | 1300 nM |
| Cc1nc2cc(-c3cnn(C4CCN(C)CC4)c3)c(O[C@H]3CCN4C(=O)OC[C@@H]4C3)cc2c(=O)n1Cc1ccc(C#N)cc1 [Example 71] | 13 nM | 3.7 nM | 234 nM | 197 nM | 171 nM |
| Cc1nc2cc(C3CC(O)C3)c(O[C@H]3CCN4C(=O)OC[C@@H]4C3)cc2c(=O)n1Cc1ccc(C#N)cc1 (stereo partly drawn) [Example 72] | 4.7 nM | 7.5 nM | 181 nM | 195 nM | 404 nM |
| Cc1nc2cc(-c3cn4c(n3)CNCC4)c(O[C@H]3CCN4C(=O)OC[C@@H]4C3)cc2c(=O)n1Cc1ccc(C#N)cc1 [Example 73] | 5.2 nM | 1 nM | 3880 nM | 4180 nM | 3020 nM |
| Cc1nc2cc(C3CC(C)(O)C3)c(O[C@H]3CCN4C(=O)OC[C@@H]4C3)cc2c(=O)n1Cc1ccc(C#N)cc1 (stereo partly drawn) [Example 74] | 6.4 nM | 6.4 nM | 447 nM | 55 nM | 432 nM |
| COc1ncc(-c2cc3nc(C)n(Cc4ccc(C#N)cc4)c(=O)c3cc2O[C@H]2CCN3C(=O)OC[C@@H]3C2)cn1 [Example 75] | 23 nM | 29 nM | 381 nM | 164 nM | 413 nM |
| Cc1nc2cc(-c3cc(C(F)(F)F)[nH]n3)c(O[C@H]3CCN4C(=O)OC[C@@H]4C3)cc2c(=O)n1Cc1ccc(C#N)cc1 [Example 76] | 11 nM | 11 nM | 412 nM | 261 nM | 309 nM |
| CCc1nc2cc(-c3cnc(OC)nc3)c(O[C@H]3CCN4C(=O)OC[C@@H]4C3)cc2c(=O)n1Cc1ccc(Cl)cc1 [Example 78] | 20 nM | 15 nM | 405 nM | 178 nM | 224 nM |
| Cc1nc2cc(-c3cn4c(n3)CN(C)CC4)c(O[C@H]3CCN4C(=O)OC[C@@H]4C3)cc2c(=O)n1Cc1ccc(Cl)cc1 [Example 79] | 5.5 nM | 4.9 nM | 111 nM | 147 nM | 123 nM |
